This note sets out measurements from patent US20020052323A1, “Quinoline-(C=O)-(multiple amino acids)-leaving group compounds for pharmaceutical compositions and reagents” (priority 2000, published 2002).

Where “and” joins values, the source holds several entries; their conditions need not be identical. Identical values can stand only once. Like-named read-outs stand apart in the source and are kept apart here.

In one data set the target is T1, caspase 1 (Homo sapiens, UniProt P29466).
T1 sequence (P29466 120-297 limits assumed): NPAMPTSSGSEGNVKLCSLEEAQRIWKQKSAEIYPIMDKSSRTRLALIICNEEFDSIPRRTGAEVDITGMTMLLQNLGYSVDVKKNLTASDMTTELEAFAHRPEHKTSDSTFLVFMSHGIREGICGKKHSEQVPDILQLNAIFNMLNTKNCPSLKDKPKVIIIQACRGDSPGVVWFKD
T1 sequence (P29466 317-404 limits assumed): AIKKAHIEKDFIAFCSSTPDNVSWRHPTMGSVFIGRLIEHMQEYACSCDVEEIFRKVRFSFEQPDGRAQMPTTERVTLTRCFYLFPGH
Nature of the data set: Caspase inhibition assay, AcYVAD-AFC substrate. The format is biochemical. As to the method:
(§1) The determination of the IC50/μm was performed according to Gary Johnson, 9401 James Avenue, Suite No. 155, Bloomington, Minn. 55431.
(§2) Caspase Inhibition Assay:—Caspases are diluted in caspase buffer, 0.1 M HEPES, 10% sucrose 0.1% CHAPS and 10 mM DTT, pH 7.5. Caspases 1, 3, and 8 are used at a concentration of 144 U/well and caspase 9 is used at 4.8 U/well in a 96 well fluorometric plate.
(§3) Inhibitors are initially dissolved in DMSO at 10 mg/ml and further dilutions can be prepared in caspase buffer. The inhibitors are generally tested at concentrations ranging from 50 uM to 0.005 uM. These are usually prepared as 2 fold or 2.5 fold decreasing dilutions. The enzyme approximately 144 U in 120 ul caspase buffer is added to 380 ul caspase buffer containing the appropriate concentration on the inhibitor and incubated on ice for 15 min. The reactants 200 ul are then added to a black fluorimetric plate and incubated in the fluorometer at 37° C. for 30 min.
(§4) During the incubation period appropriate coumarin substrates are prepared by dilution in DMSO and caspase buffer to provide a 0.417 mM working stock. AcYVAD-AFC is used for caspase 1, AcDEVD-AFC for caspase 3. AcIETD-AFC for caspase 8 and Ac-LEHD-AFC for capsase 9. Twenty five microliters of the stock solution are added to 200 ul of the caspase and inhibitor test solutions to give a final substrate concentration of 0.046 mM.
(§5) The fluorometer is set to 400 nm excitation and 505 nm emission. The enzyme-inhibitor-substrate is allowed to incubate at for an additional twenty min. and the response is read as fluorescence units vs inhibitor concentration. The responses are plotted as percent of the maximum response (response in the absence of inhibitor) for each concentration of the inhibitor. The inhibitory activity for each inhibitor is described as the concentration of inhibitor that produces a 50% inhibition of the maximum response (IC50).

The target of the next data set is T2, caspase 3 (Homo sapiens, UniProt P42574).
T2 sequence (P42574 29-175 limits assumed): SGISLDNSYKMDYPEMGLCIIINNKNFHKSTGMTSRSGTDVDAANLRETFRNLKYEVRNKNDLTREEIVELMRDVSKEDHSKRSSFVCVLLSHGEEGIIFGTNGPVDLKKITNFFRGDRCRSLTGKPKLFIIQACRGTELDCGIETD
T2 sequence (P42574 176-277 limits assumed): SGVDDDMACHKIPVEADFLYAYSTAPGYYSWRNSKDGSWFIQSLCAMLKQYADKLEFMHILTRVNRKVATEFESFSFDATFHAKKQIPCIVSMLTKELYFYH
Description: Caspase inhibition assay, AcDEVD-AFC substrate. Type of data set: biochemical. As to the method:
as §1, §2, §3, §4, §5

Data set [1] relates to WEHI 231 cells. Nature of the data set: TUNEL analysis, inhibitor alone (toxicity control). The format is cell-based, murine. Particulars: no ActD. Here is the method:
Flow Cytometry measures the percent of the cell population undergoing apoptosis. The effect of the inhibitors is identified as a reduction in the percent of the cell population undergoing apoptosis. Cell Type: WEHI 231 cells, murine immature B cells (suspension) Plate cells at 2×10^5/ml in 10 ml of media (Total 2×10^6 cells) Preincubate caspase inhibitors (Formula I) one hour before inducing apoptosis. […] [table] Process fixed cells for Tunel using the Apo-BRDU kit from Pharmingen (San Diego, Calif.) following the manufacturer's instructions and analyze by flow cytometry.

The test system of data set [2] is WEHI 231 cells. Description: TUNEL analysis of Actinomycin D induced apoptosis, flow cytometry. Type of data set: cell-based, murine. Set-up: key to rank of result in TUNEL analysis: ***: Best result; **: Second best result; *: Third best result. As to the method: Flow Cytometry measures the percent of the cell population undergoing apoptosis. The effect of the inhibitors is identified as a reduction in the percent of the cell population undergoing apoptosis. Cell Type: WEHI 231 cells, murine immature B cells (suspension) Plate cells at 2×10^5/ml in 10 ml of media (Total 2×10^6 cells) Preincubate caspase inhibitors (Formula I) one hour before inducing apoptosis. […] Actinomycin D (ActD) stock is 1 μg/μl add 10 μl/10 ml)-Treat 4 h Process for Tunel Analysis. (See Table 2 below). […] Cell Processing for Tunel Analysis and Flow Cytometry. Centrifuge cells at 300× g for 5 min and aspirate supernatant. Resuspend cells in 5.0 ml of cold 1× PBS, Spin at 300× g, 5 min. Aspirate supernatant. […] Incubate for 15 min. on ice. […] Aspirate supernatant. […] Aspirate supernatant. […] Aspirate supernatant. Resuspend the cell in 300 μl of cold IX PBS, Transfer to a 1.5 ml tube. […] Store at −20° C. at least 18 hr prior to Tunel Labeling Fixed cells are stable for at least 30 days. Process fixed cells for Tunel using the Apo-BRDU kit from Pharmingen (San Diego, Calif.) following the manufacturer's instructions and analyze by flow cytometry.
On the technique in general: A flow cytometer gives signals particle by particle.

A further data set has as its target T3, caspase 9 (Homo sapiens, UniProt P55211).
T3 sequence (P55211 1-315 limits assumed): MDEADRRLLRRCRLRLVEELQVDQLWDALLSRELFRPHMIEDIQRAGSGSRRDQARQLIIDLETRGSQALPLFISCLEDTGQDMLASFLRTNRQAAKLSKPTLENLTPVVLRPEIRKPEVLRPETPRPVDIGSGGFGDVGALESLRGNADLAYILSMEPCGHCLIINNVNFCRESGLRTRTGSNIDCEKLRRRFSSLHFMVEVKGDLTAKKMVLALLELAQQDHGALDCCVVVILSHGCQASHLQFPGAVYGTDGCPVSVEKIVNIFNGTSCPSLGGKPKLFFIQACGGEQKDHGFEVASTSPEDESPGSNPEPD
T3 sequence (P55211 331-416 limits assumed): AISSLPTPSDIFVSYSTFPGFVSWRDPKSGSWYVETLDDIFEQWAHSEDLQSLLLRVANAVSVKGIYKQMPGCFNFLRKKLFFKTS
Nature of the data set: Caspase inhibition assay, Ac-LEHD-AFC substrate. The format is biochemical. As to the method: as §1, §2, §3, §4, §5

The next data set deals with caspase 8 (Homo sapiens, UniProt Q14790). Description: Caspase inhibition assay, AcIETD-AFC substrate. Type of data set: biochemical. Here is the method:
as §1, §2, §3
During the incubation period appropriate coumarin substrates are prepared by dilution in DMSO and caspase buffer to provide a 0.417 mM working stock. AcYVAD-AFC is used for caspase 1, AcDEVD-AFC for caspase 3. […]
The fluorometer is set to 400 nm excitation and 505 nm emission. The enzyme-inhibitor-substrate is allowed to incubate at for an additional twenty min. and the response is read as fluorescence units vs inhibitor concentration. […]

Where [3] appears, read: from figure, antilog of log concentration, read-out: IC50 caspase 1.
[4] abbreviates: from figure, antilog of log concentration, read-out: IC50 caspase 3.
Where [5] appears, read: esterase treated inhibitor, read-out: IC50 caspase 1.

Sequence of caspase 8 (Q14790 217-374 limits assumed, species assumed): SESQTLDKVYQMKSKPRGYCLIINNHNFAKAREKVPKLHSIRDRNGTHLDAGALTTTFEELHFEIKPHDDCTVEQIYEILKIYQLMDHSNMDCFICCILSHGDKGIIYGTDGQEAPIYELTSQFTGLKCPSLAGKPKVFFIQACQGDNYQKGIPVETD
Sequence of caspase 8 (Q14790 385-479 limits assumed, species assumed): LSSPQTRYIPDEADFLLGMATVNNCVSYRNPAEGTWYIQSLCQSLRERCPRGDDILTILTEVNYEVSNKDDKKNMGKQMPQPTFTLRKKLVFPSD

The IC50 is the concentration that inhibits the measured activity by half. Turning to `CC(C)C[C@H](NC(=O)c1ccc2ccccc2n1)C(=O)N[C@@H](CC(=O)O)C(=O)COc1ccccc1` [quinoline-(2-carbonyl)-L-D-CH2—OPh], the IC50 is about 548 nM at caspase 1 (setting [3]) and about 50 nM on caspase 3 (setting [4]).

On to `COC(=O)CC(NC(=O)C(CC(C)C)NC(=O)c1ccc2ccccc2n1)C(=O)COc1ccccc1` (stereo not shown) [Inhibitor J^1, Q-Leu-Asp(OMe)—CH2—OPh], for which the “% non-viable cells, inhibitor alone” value with WEHI 231 cells [1] (20 μM Inh alone) and in the data set on WEHI 231 cells [1] (100 μM Inh alone) was 1% in each case. Further, the “% non-viable cells” value with WEHI 231 cells [2] (1 μM inhibitor + ActD, WEHI 231, lower = greater inhibitory activity) is given as 88%; in the data set with WEHI 231 cells [2] (10 μM inhibitor + ActD, WEHI 231) it was 16%; in the data set with WEHI 231 cells [2] (20 μM inhibitor + ActD, WEHI 231), 3%; in the data set on WEHI 231 cells [2] (30 μM inhibitor + ActD, WEHI 231), 2%; with WEHI 231 cells [2] (40 μM inhibitor + ActD, WEHI 231) it was 2%; with WEHI 231 cells [2] (50 μM inhibitor + ActD, WEHI 231) it was 2%. The “% non-viable cells” value in the data set on WEHI 231 cells [2] (100 μM inhibitor + ActD, WEHI 231) was determined as 3%. Moreover, the “efficacy in TUNEL test, in words” value in the data set on WEHI 231 cells [2] (10 sequences in a blind test) is given as “most efficacious”. Also, the “rank of result in TUNEL analysis” value in the data set on WEHI 231 cells [2] (Table 3 markers) is on record as “J^1**”; with WEHI 231 cells [2] (markers in structure designation table), “Q-Leu-Asp(OMe)—CH2—OPh**”. For the same molecule, in the data set on WEHI 231 cells [2] (blind test by TUNEL method, conclusions), the “effective concentration in TUNEL test” value is 10 µM. Also, the IC50 on caspase 1 (setting [3]) was about 940 nM.

On to “Quinoline-(2-Carbonyl)-Val-Asp(OMe)-α-(3-oxy-Dopamine) [Q-VD(OMe)-DOPA.TFA]”, for which the IC50 at caspase 3 (Table 5, read-out: CASP-3 IC50) stood at 2000 nM.

As for `COC(=O)CC(NC(=O)C(NC(=O)c1ccc2ccccc2n1)C(C)C)C(=O)CF` [quinoline-(2-carbonyl)-V-D(OMe)—CH2-FMK, Quinoline-(2-Carbonyl)-V-D-(OMe)-α-CH2F (the Fluoromethyl Ketone)], the IC50 against caspase 9 (esterase treated inhibitor) was 25 nM; at caspase 9 (non-esterase treated inhibitor), about 29 nM; on caspase 1 (setting [5]) it was about 68 nM.

Regarding `COC(=O)CC(NC(=O)C(CC(C)C)NC(=O)c1ccc2ccccc2n1)C(=O)CF` [quinoline-(2-carbonyl)-L-D(OMe)—CH2-FMK], the IC50 was about 70 nM on caspase 9 (esterase treated inhibitor); about 65 nM on caspase 9 (non-esterase treated inhibitor); about 39.8 nM at caspase 1 (setting [5]); about 31 nM at caspase 3 (esterase treated inhibitor, read-out: IC50 caspase 3); 45 nM on caspase 3 (non-esterase treated inhibitor, read-out: IC50 caspase 3).

As to `COC(=O)C[C@H](NC(=O)[C@@H](NC(=O)c1ccc2ccccc2n1)C(C)C)C(=O)COC1=C(c2ccccc2)C(=O)OC1` [Q-VD(OMe)-Tetronic Acid, Quinoline-(2-Carbonyl)-Val-Asp(OMe)—CH2-2-Phenyltetronic Acid], the IC50 at caspase 3 (Table 5, read-out: CASP-3 IC50) worked out at 250 nM.

Turning to `COC(=O)CC(NC(=O)C(NC(=O)c1ccc2ccccc2n1)C(C)C)C(=O)COc1ccccc1C(=O)O` (stereo not shown) [Q-VD(OMe)-SA, Quinoline-(2-Carbonyl)-Val-Asp(OMe)—CH—O-Salicylic Acid], the IC50 at caspase 1 (Table 5, read-out: CASP-1 IC50) is 1430 nM; at caspase 1 (setting [3]) it was about 1430 nM; at caspase 3 (Table 5, read-out: CASP-3 IC50) it was 500 nM.

On to `COC(=O)CC(NC(=O)C(NC(=O)c1ccc2ccccc2n1)C(C)C)C(=O)COc1ccc(CCNC(=O)OC(C)(C)C)cc1O` (stereo not shown) [Q-VD(OMe)-DOPA-BOC], for which the IC50 on caspase 3 (Table 5, read-out: CASP-3 IC50) was under 25000 nM.

Turning to `COC(=O)CC(NC(=O)C(NC(=O)c1ccc2ccccc2n1)C(C)C)C(=O)COc1cc(N)ccc1C(=O)O` (stereo not drawn) [Q-VD(OMe)-ASA, Quinoline-(2-Carbonyl)-Val-Asp(OMe)-α-(2-oxy-Amino Salicylic Acid)], the IC50 was about 5440 nM on caspase 9 (from figure, antilog of log concentration); 1500 nM on caspase 1 (Table 5, read-out: CASP-1 IC50); about 1460 nM at caspase 1 (setting [3]); 5880 nM on caspase 8 (Table 5, read-out: CASP-8 IC50); about 5820 nM at caspase 8 (from figure, read-out: IC50 caspase 8); 1240 nM on caspase 3 (Table 5, read-out: CASP-3 IC50). Also, at caspase 3 (setting [4]), the concentration for half-maximal inhibition (IC50) was ~1230 nM and ~980 nM.

`COC(=O)C[C@H](NC(=O)[C@H](C)NC(=O)[C@@H](NC(=O)c1ccc2ccccc2n1)C(C)C)C(=O)CF` [QVAD(OMe)FMK, Quinoline-(C═O)Val-Ala-Asp(OMe)-Fluoromethyl Ketone]: the “concentration vs. >90% cell survival” value turned out to be 100 µM.

As for `CC(C)[C@H](NC(=O)c1ccc2ccccc2n1)C(=O)N[C@@H](CC(=O)O)C(=O)COc1ccccc1` [quinoline-(2-carbonyl)-V-D-CH2—OPh], the IC50 on caspase 1 (setting [3]) is about 50 nM.

hydroxy Trp-TTP-V-D(OMe)—CH2—O—Ph: the IC50 at caspase 1 (setting [3]) was about 115 nM.
